Results on 15 compounds are retold here after patent US12448371B2, “Inhibitor compounds” (Cincera Therapeutics Pty Ltd, priority 2019, dated 2025).

The term inhibition denotes the share of the control response that was lost under treatment. A higher inhibition goes with strong suppression. One may read the IC50 as the concentration needed to halve the response being measured.

Where a name gives a salt, the structure may show the parent alone.

For one test, the target named is T1, Des1 (h) (Homo sapiens, UniProt O15121).
T1 construct: endogenous in cells; host or cells: parental Jurkat cells
T1 sequence (O15121 1-323): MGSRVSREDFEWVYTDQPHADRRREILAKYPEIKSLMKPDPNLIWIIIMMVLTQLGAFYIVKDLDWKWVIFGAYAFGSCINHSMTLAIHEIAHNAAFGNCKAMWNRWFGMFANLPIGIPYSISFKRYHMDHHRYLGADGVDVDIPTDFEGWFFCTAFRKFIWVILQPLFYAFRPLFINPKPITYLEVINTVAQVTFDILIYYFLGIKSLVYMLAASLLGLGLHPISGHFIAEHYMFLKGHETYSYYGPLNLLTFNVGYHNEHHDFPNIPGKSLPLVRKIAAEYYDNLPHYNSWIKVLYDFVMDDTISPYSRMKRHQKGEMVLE
Put plainly: Measurement of Dihydroceramide Desaturase-1 (Des-1) activity in intact Jurkat cells labeled with DhCer-C6-NBD (HPLC). Format: cell-based. As to conditions: Jurkat cells; 1 μM. How it is done: Measurement of Dihydroceramide Desaturase-1 (Des-1) Activity
Compounds were assessed for Des-1 inhibitory activity. Measurement of Des1 activity was performed by HPLC using intact Jurkat cells labeled with DhCer-C6-NBD as described previously (Munoz-Olaya, J. M. et al. ChemMedChem 2008, 3, 946-953) with modifications to enhance sensitivity and reproducibility. These modifications included the use of parental Jurkat cells, 0.5% serum in the culture media, and cell harvesting via centrifugation at 500×g to maximise ceramide extraction. Extracted samples (50 ul) were analysed on a Waters HPLC coupled to a fluorescence detector using a 30 cm C18 reverse-phase column eluted with 1 ml/min 20% H2O and 80% acetonitrile, both with a 0.1% of trifluoroacetic acid. NBD-labelled substrate and product were quantitated with an excitation and emission wavelengths of 465 nm and 530 nm, respectively.
For the compound `CC(C)N(O)C(=O)c1ccc(Nc2ncc(-c3ccc(C(F)(F)F)cc3)o2)cn1` [Example 34, N-Hydroxy-N-isopropyl-5-((5-(4-(trifluoromethyl)phenyl)oxazol-2-yl)amino)picolinamide], the inhibition at 1 µM stood at 23%.
The same measure, in the same setting: to `N/C(=N/O)c1ccc(Nc2ncc(-c3ccc(C4CC4)cn3)o2)cn1` [Example 62, 5-((5-(5-Cyclopropylpyridin-2-yl)oxazol-2-yl)amino)-N′-hydroxypicolinimidamide] belongs 42%.
Still for that read-out and setting: then `N=C(NCC(O)CO)c1ccc(Nc2ncc(-c3ccc(C(F)(F)F)cc3)o2)cn1` (racemic) [Compound 91, rac-N-(2,3-dihydroxypropyl)-5-((5-(4-(trifluoromethyl)phenyl)oxazol-2-yl)amino)picolinimidamide], with 44%.

Still in this test, the particulars now being: intact Jurkat cells; given as concentration range, or <X / >X if measured at one concentration X only; read-out: Des1 (h) Jurkat IC50.
As for `CC(C)N(O)C(=O)c1ccc(Nc2ncc(-c3ccc(C(F)(F)F)cc3)o2)cn1` [Example 34, N-Hydroxy-N-isopropyl-5-((5-(4-(trifluoromethyl)phenyl)oxazol-2-yl)amino)picolinamide], the IC50 is above 1000 nM.
Same read-out and setting: then `N/C(=N\O)c1ccc(Nc2ncc(-c3ccc(C(F)(F)F)cc3)o2)nn1` [Example 53, N′-Hydroxy-6-((5-(4-(trifluoromethyl)phenyl)oxazol-2-yl)amino)pyridazine-3-carboximidamide], with 1 to 10 nM; and `N/C(=N\O)c1ccc(Nc2nc(-c3ccc(Cl)cc3)no2)cn1` [Example 78, 5-((3-(4-chlorophenyl)-1,2,4-oxadiazol-5-yl)amino)-N′-hydroxypicolinimidamide], with below 1000 nM.
The same measure, in the same setting: then `Cc1nc(Nc2ccc(C(=O)NC[C@@H](O)CO)nc2)oc1-c1ccc(C(F)(F)F)cc1` [Compound 96, (R)—N-(2,3-dihydroxypropyl)-5-((4-methyl-5-(4-(trifluoromethyl)phenyl)oxazol-2-yl)amino)picolinamide], with below 1000 nM.
Turning to `N=C(NO)c1ccc(Nc2ncc(-c3ccc(F)c(F)c3)o2)nn1` [Example 48, 6-((5-(3,4-Difluorophenyl)oxazol-2-yl)amino)-N′-hydroxypyridazine-3-carboximidamide], the IC50 lay in the range of 1 to 10 nM.
In the case of `CN(O)C(=O)c1ncc(Nc2ncc(-c3ccc(C(F)(F)F)cc3)o2)cc1O` [Example 28, N,3-Dihydroxy-N-methyl-5-((5-(4-(trifluoromethyl)phenyl)oxazol-2-yl)amino)picolinamide], the IC50 is below 1000 nM.
Same read-out and setting: to `O=c1cc(Nc2nnc(-c3ccc(C(F)(F)F)cc3)o2)ccn1O` [Example 7, 1-Hydroxy-4-((5-[4-(trifluoromethyl)phenyl]-1,3,4-oxadiazol-2-yl)amino)-1,2-dihydropyridin-2-one] belongs below 1000 nM.
The same measure, in the same setting: to `N/C(=N\O)c1ccc(Nc2ncc(-c3ccc(C(F)(F)F)cc3)o2)nc1` [Example 3, N′-Hydroxy-6-((5-(4-(trifluoromethyl)phenyl)oxazol-2-yl)amino)nicotinimidamide hydrochloride] belongs 100 to 1000 nM; to `N/C(=N\O)c1ccc(Nc2ncc(-c3ccc(C(F)F)cc3)o2)cn1` [Example 52, 5-((5-(4-(Difluoromethyl)phenyl)oxazol-2-yl)amino)-N′-hydroxypicolinimidamide], 100 to 1000 nM; to `N/C(=N\O)c1cnc(Nc2nc(-c3ccc(Cl)cc3)no2)cn1` [Example 79, 5-((3-(4-chlorophenyl)-1,2,4-oxadiazol-5-yl)amino)-N′-hydroxypyrazine-2-carboximidamide], below 1000 nM.
Consider `N/C(=N/O)c1ccc(Nc2ncc(-c3ccc(C4CC4)cn3)o2)cn1` [Example 62, 5-((5-(5-Cyclopropylpyridin-2-yl)oxazol-2-yl)amino)-N′-hydroxypicolinimidamide], for which the half-inhibitory concentration (IC50) is above 1000 nM.
Still for that read-out and setting: then `N/C(=N\O)c1cnc(Nc2ncc(-c3ccc(Cl)cc3)o2)cn1` [Compound 101, 5-((5-(4-Chlorophenyl)oxazol-2-yl)amino)-N′-hydroxypyrazine-2-carboximidamide], with below 1000 nM; and `N=C(NCC(O)CO)c1ccc(Nc2ncc(-c3ccc(C(F)(F)F)cc3)o2)cn1` (racemic) [Compound 91, rac-N-(2,3-dihydroxypropyl)-5-((5-(4-(trifluoromethyl)phenyl)oxazol-2-yl)amino)picolinimidamide], with above 1000 nM.
Still for that read-out and setting: then `O=C(NO)c1ccc(Nc2nc(-c3ccc(C(F)(F)F)cc3)co2)cn1` [Example 14, N-Hydroxy-5-((4-[4-(trifluoromethyl)phenyl]-1,3-oxazol-2-yl)amino)picolinamide], with 100 to 1000 nM.
Still for that read-out and setting: then `CN(O)C(=O)Nc1ccc(Nc2ncc(-c3ccc(C(F)(F)F)cc3)o2)cn1` [Example 35, 1-Hydroxy-1-methyl-3-(5-((5-(4-(trifluoromethyl)phenyl)oxazol-2-yl)amino)pyridin-2-yl)urea], with 10 to 100 nM.
